Results from PMC9106868 (European journal of medicinal chemistry, 2022).

Key:
GluN1/2A NMDARs = GluN1/2A NMDARs (Rattus norvegicus, UniProt P35439+Q00959); assay type: cell-based; conditions: after removal of 10 μM blocker
5XFAD mice hippocampus = experiment: Western blot of hippocampal proteins after treatment; assay type: in vivo, mouse; conditions: 5 mg / kg
NMDAR = conditions: cited from earlier work; for V0: previously reported values, ref [28],[63],[68],[80]–[81]; for IC50: therapeutically beneficial NMDAR antagonists, ref [28],[61]–[68]
Caco-2 cells = experiment: Caco-2 cell permeability; assay type: in vitro ADME; conditions: 10 μM in HBSS, 1 hour, 37 °C

Chain of GluN1/2A NMDARs (Q00959 23-1464, other chains not shown): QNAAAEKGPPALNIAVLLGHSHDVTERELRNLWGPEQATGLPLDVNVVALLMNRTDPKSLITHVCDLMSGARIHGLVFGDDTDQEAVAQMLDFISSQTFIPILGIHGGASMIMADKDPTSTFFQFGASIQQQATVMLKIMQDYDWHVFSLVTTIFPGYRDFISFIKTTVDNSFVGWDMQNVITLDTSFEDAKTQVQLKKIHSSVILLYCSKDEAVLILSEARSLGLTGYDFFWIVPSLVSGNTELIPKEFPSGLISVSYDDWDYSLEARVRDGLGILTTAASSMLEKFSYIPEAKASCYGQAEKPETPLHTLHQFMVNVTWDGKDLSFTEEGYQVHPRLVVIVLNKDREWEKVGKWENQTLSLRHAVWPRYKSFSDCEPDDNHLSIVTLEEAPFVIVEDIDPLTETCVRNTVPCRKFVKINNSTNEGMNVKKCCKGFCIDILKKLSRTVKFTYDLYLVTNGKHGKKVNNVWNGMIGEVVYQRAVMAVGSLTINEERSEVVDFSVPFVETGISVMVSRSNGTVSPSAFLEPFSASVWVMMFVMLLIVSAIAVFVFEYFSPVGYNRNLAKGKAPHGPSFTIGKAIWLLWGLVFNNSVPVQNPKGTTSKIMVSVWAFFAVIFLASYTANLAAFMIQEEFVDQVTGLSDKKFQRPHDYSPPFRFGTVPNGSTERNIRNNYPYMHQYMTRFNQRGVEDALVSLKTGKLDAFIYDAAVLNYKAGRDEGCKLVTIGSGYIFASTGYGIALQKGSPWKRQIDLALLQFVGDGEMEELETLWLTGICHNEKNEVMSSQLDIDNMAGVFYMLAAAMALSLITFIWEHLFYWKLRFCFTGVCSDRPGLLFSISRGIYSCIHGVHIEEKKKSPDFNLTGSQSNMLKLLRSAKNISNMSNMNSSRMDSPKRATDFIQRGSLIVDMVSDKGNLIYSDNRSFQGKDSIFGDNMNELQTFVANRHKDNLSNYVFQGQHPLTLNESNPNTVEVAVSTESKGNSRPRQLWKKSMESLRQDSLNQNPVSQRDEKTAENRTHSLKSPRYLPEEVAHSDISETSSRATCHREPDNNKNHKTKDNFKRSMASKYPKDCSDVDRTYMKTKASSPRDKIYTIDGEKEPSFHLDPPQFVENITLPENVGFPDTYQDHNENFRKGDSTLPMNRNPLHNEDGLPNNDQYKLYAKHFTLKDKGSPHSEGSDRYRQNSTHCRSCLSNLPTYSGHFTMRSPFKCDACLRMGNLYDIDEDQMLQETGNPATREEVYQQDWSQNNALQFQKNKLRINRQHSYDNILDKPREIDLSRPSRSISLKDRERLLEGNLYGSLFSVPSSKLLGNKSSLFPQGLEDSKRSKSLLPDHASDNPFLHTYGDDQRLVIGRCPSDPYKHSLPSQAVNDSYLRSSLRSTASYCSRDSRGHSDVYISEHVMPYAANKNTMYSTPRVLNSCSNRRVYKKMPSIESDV

For CC12CC3CC(C)(C1)CC(N)(C3)C2 [Memantine, memantine], which “Unblocking kinetics, τweighted” value (GluN1/2A NMDARs) is on record?
Its value is 6.4 ± 1.4 s.

And the “Calbindin D-28K protein levels” value (5XFAD mice hippocampus)?
The value was “reverts calbindin D-28K protein levels to WT levels”.

And the PSD95 expression (5XFAD mice hippocampus)?
Its PSD95 expression is “rescues expression of postsynaptic density protein (PSD) 95”.

What about the “p-CREB protein levels in the nucleus” value (5XFAD mice hippocampus; vs untreated 5XFAD) of the same compound?
Its value is “significantly increased p-CREB protein levels in the nucleus”.

What about the V0 (NMDAR) of the same compound?
The V0 was 26 – 30 mV.

What about the IC50 (NMDAR) of the same compound?
The IC50 was 1 to 2 µM.

With NC12CC3CC(CC(C3)C1)C2 [amantadine] as the compound, how does the IC50 (NMDAR) read?
The IC50 was 40 to 75 µM.

With CNC1(c2ccccc2Cl)CCCCC1=O (stereo not drawn) [ketamine] as the compound, how does the V0 (NMDAR) read?
Its V0 is 26 – 30 mV.

Which “Caco-2 Papp (monolayer integrity)” value (Caco-2 cells) does the source give for Lucifer yellow here?
The value was no more than 1 ×10⁻⁶ cm/s.
